{"source": "paper PMC9887116", "about": "“SDI-118, a novel procognitive SV2A modulator: First-in-human randomized controlled trial including PET/fMRI assessment of target engagement” (Frontiers in Pharmacology, 2023)", "key": {"[1]": {"details": "in vivo", "description": "The study consisted of three parts. Part A was a double-blind, placebo-controlled (in a 6:2 SDI-118:placebo ratio), single ascending oral dose study performed in 16 subjects equally divided into two cohorts. […] Dose levels of .3, 1, 3, 10, 30, 60, 90 and 120 mg of SDI-118 were set to be administered in an alternating panel design with a minimum washout period of 7 days between subsequent periods. In each period two different sentinel subjects were dosed (in a 1:1 SDI-118:placebo ratio) and followed-up for safety for at least 48 h before the rest of the cohort received the same dose level of the study drug.\n(§1) Safety and tolerability were assessed by questioning for adverse events (AEs), vital signs measurements (supine and orthostatic), 12-lead ECGs (always acquired in triplicate except during screening and post-study visit), standard lab safety tests on blood and urine samples, and physical and neurological examinations at regular time-points throughout the study."}, "[2]": {"target": "hERG (Homo sapiens, UniProt Q12809)", "sequence (Q12809 whole entry)": "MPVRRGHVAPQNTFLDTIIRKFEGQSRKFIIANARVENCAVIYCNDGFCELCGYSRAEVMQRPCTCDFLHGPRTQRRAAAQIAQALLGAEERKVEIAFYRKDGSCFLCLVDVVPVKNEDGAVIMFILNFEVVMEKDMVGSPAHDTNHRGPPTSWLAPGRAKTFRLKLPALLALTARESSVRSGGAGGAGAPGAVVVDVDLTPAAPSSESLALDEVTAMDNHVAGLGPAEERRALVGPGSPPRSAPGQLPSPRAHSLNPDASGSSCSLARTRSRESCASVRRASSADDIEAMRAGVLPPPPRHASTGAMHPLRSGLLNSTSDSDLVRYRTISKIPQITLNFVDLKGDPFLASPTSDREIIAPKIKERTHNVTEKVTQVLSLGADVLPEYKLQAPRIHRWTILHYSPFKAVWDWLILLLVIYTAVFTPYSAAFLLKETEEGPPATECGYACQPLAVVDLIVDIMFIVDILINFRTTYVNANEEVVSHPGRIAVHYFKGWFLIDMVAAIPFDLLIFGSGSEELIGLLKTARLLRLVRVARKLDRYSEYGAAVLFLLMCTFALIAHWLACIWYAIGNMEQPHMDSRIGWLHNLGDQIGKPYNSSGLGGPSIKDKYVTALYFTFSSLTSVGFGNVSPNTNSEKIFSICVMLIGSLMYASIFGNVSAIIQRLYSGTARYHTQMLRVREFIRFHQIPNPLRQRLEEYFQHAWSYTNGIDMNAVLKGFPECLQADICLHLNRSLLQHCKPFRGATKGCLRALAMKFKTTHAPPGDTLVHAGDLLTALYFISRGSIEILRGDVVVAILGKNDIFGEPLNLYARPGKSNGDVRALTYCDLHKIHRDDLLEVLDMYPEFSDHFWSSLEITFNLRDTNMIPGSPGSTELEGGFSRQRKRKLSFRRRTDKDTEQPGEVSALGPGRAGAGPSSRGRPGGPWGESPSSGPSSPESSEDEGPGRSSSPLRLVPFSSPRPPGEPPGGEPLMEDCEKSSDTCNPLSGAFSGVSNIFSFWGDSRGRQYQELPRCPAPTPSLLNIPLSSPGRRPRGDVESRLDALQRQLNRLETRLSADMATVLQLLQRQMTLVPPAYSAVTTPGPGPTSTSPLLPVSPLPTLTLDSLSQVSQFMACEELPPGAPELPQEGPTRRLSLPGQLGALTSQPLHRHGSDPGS", "assay": "preclinical in vitro hERG inhibition", "format": "biochemical", "details": "preclinical in vitro studies"}, "[3]": {"assay": "12-lead ECG QT-interval assessment in first-in-human study", "format": "in vivo, human (healthy male subjects)", "description": "as §1"}, "[4]": {"system": "screening panel of receptors and enzymes", "assay": "screening panel of receptors and enzymes", "details": "up to a concentration of 10 µM", "experimental": "There were no SAEs or adverse events leading to subject discontinuation from the study. […] The most frequently reported drug related TEAEs were dizziness, hypersomnia, and somnolence, the latter reported only at the highest dose tested (i.e. 80 mg). The onset time of these events was generally short after dose administration, and their duration was usually short with resolution on the same day of dosing or the day after at the most. These mild and transient side effects started at the 10 mg dose and were also observed at higher doses. […] Occupancy at the higher doses would then progressively increase to a maximum of 96% of the predicted maximum at the 80 mg dose. Thus, the observed mild and transient side effects could be consistent with a target related effect seen, in some individuals, at occupancy levels greater than ∼60%. […] Further studies will elucidate this. None of the observed clinically significant changes in vital signs, laboratory parameters, and ECG intervals during the study were considered related to the administration of SDI-118."}, "[5]": {"assay": "food effect on pharmacokinetics, Part C", "format": "in vivo, human (healthy male subjects)", "details": "10 mg", "experimental": "Blood samples for PK analysis were taken at regular time-points up to approximately 96 h post-dose in Part A and C. During the study, a protocol amendment was approved to extend the PK sampling scheme to include samples up to approximately 144 h post-dose, starting from the fourth dosing period. The rationale for this amendment was a longer than anticipated terminal elimination half-life of SDI-118 as concluded from preliminary PK data of the first three dosing periods. Plasma concentrations of SDI-118 were assayed using a GLP validated UPLC/MS-MS method. This method is linear for a range of concentrations from 0.200 to 500 ng/ml, with a lower limit of quantification (LLOQ) of 0.200 ng/ml. The following PK parameters were estimated: maximum plasma concentration Cmax, time of maximum plasma concentration Tmax, area under the plasma concentration versus time curve AUC, AUC0-last (up to the last quantifiable concentration Clast), AUCinf (extrapolated to infinity), and apparent terminal elimination half-life t½. Dose proportionality of SDI-118 Cmax, AUC0-last, and AUCinf from Part A was calculated based on a mixed-effect power model. Food effect on SDI-118 Cmax, AUC0-last, and AUCinf from Part C was calculated using a 90% confidence interval (CI) on geometric mean ratios (fed/fasted) based on a mixed-effect analysis of variance (ANOVA) with median difference in Tmax with 90% CI. Major interaction was excluded if the 90% CI on AUC and Cmax ratios (fed/fasted) were within the 50%–200% boundaries. The food effect assessment in Part C was performed on a secondary population, i.e. the PK completers set, which excluded one subject who discontinued the study after one dosing period (cfr. infra)."}, "[6]": {"target": "T1, SV2A (Homo sapiens, UniProt Q7L0J3)", "T1 construct": "from tissue; host or cells: brain of healthy male subjects, in vivo", "T1 sequence (Q7L0J3 whole entry)": "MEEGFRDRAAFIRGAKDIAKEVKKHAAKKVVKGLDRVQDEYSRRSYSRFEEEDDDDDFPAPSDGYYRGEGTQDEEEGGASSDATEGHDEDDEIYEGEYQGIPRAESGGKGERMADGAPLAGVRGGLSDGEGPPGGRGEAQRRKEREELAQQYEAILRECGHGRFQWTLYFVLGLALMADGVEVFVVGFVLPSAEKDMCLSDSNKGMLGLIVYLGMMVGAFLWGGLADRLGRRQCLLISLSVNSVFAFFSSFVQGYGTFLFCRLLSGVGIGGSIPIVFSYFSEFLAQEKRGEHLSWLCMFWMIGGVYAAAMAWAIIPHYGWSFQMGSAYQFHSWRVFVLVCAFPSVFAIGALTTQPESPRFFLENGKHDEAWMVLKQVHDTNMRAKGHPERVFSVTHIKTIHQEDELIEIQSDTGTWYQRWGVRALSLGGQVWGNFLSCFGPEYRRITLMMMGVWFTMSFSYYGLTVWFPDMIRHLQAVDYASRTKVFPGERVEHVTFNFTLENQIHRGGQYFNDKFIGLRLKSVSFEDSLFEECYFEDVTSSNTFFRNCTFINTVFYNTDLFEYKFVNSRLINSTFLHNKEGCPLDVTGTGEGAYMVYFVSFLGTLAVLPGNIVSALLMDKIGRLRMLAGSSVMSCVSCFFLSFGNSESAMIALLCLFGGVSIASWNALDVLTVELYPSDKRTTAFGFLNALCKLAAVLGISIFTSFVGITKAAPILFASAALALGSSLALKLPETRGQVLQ", "assay": "brain SV2A occupancy by [11C]-UCB-J PET and PK/PD Emax model, Part B", "format": "in vivo, human (healthy male subjects)", "experimental": "In Part B target occupancy in the brain was measured by PET-scans (GE Signa) with the PET-ligand [^11C]-UCB-J ([Nabulsi et al., 2016]; [Koole et al., 2019]) at three different time points: pre-dose, around Tmax (estimated on data collected in Part A), and approximately 24 h post-dose. [^11C]-UCB-J was administered as an intravenous bolus into the antecubital vein over at least 15 s, followed by saline flush. An arterial line in the radial artery was placed in each subject to collect arterial blood samples to reconstruct a metabolite-corrected arterial plasma input function.\nDynamic PET scans were acquired in 3D list-mode for 90 min. List-mode data were rebinned into […] with a gradually increasing frame duration (6 × 15 s—3 × 30 s—3 × 60 s—2 × 90 s—2 × 3 min—9 × 5 min—3 × 10 min) and corrected for deadtime, randoms, and scatter. To correct for attenuation, a Zero-Echo Time (ZTE) scan was acquired simultaneously with the PET data to generate a subject-specific, MR-based attenuation map. Each frame was reconstructed with an iterative algorithm (OSEM—Ordered Subsets Expectation Maximization, four iterations, 28 subsets), modeling detector response, and using time of flight information (TOF). Each reconstructed frame consisted of 89 slices with a matrix size of 192 × 192, corresponding to an in-plane pixel size of 1.56 mm and a slice separation of 2.78 mm. Finally, smoothing was performed by applying a Gaussian filter (4.5 mm Full Width Half Maximum–FWHM) to each time frame.\nSDI-118 SV2A occupancy was estimated globally using a full kinetic one-tissue compartmental modeling approach with an arterial input function (1TCM), and target occupancy was assessed with a Lassen plot using 13 main regions of interest: the overall cortex, the frontal, temporal, parietal and occipital cortex, the insula, the anterior and posterior cingulate cortex, the cerebellum, the striatum, the thalamus, the hippocampus, and the brainstem.\nThe PK/PD analysis set included all subjects from Part B with at least one available valid combined measurement of PK and PD, who received treatment and experienced no protocol deviations with relevant impact on PK or PD data. The global target occupancy based on the 1TCM method was analyzed as a function of the first PK concentration during the Tmax and 24-h post-dose scans. To estimate the relationship between the observed concentration at the beginning of the PET measurement and the receptor occupancy, a mixed-effect maximal effective concentration (Emax) model with two parameters Emax and half maximal effective concentration (EC50), with a random intercept was used. Parameter estimates, standard errors, and 95% confidence intervals were reported. Predictions from the model were reported with 95% confidence and prediction intervals to inform the required doses to produce these target occupancy values at Tmax and 24-h post-dose."}, "[7]": {"parameters": "species or system rats", "details": "rat, in vivo"}, "[8]": {"assay": "anti-convulsant effects (preclinical)", "format": "in vivo", "details": "despite good brain penetration and target occupancy", "excerpt": "([Löscher et al., 2016]). […] ([Lynch et al., 2004]; [Matagne et al., 2008])."}, "[9]": {"details": "Emax model excluding 22-h post-dose data of the 1 mg group"}}, "note": "Values joined by “and” are separate entries in the source; they are usually repeats but may differ in a detail not shown here. Equal entries are not always repeated."}
{"smiles": "O=C1C[C@H](c2cc(F)c(F)c(F)c2)CN1Cn1ncnc1Cl", "note": "[SDI-118]", "values": [{"measurement": "onset time of dizziness, hypersomnia, somnolence after dose administration", "setting": "[1]", "value": "up to 4 h"}, {"measurement": "potential to inhibit hERG", "setting": "[2]", "value": "low potential to inhibit hERG"}, {"measurement": "largest observed mean increase from baseline QTcF", "setting": "[3]; 12 h post-dose at 60 mg", "value": "+6.1 ms"}, {"measurement": "single QT-interval value, any subject", "setting": "[3]; no subject above this value", "value": "≤ 500", "unit": "ms"}, {"measurement": "single corrected QT-interval Fridericia (QTcF) value, any subject", "setting": "[3]; no subject above this value", "value": "≤ 450", "unit": "ms"}, {"measurement": "QT-interval prolongation", "setting": "[3]; single oral doses 0.3-80 mg", "value": "no QT-interval prolongations were observed"}, {"measurement": "activity in screening panel of receptors and enzymes", "setting": "[4]", "value": "no activity was observed"}, {"measurement": "median Tmax", "setting": "[5]; fasting state", "value": 1.5, "unit": "h"}, {"measurement": "median Tmax", "setting": "[5]; fed state (standardized high fat meal)", "value": 4.0, "unit": "h"}, {"measurement": "effect of food on extent of exposure (Cmax, AUC0-last, AUCinf)", "setting": "[5]; fed vs fasted (n = 8)", "value": "No clinically relevant effect of food"}, {"measurement": "mean SV2A occupancy", "setting": "[6]; 1 mg oral, approximately 24 h after administration", "value": "~0", "unit": "%"}, {"measurement": "mean SV2A occupancy", "setting": "[6]; 1 mg oral, around Tmax (2 h post-dose), 1TC global method", "value": 23, "unit": "%"}, {"measurement": "mean SV2A occupancy", "setting": "[6]; 2 mg oral, approximately 24 h after administration", "value": 20, "unit": "%"}, {"measurement": "mean SV2A occupancy", "setting": "[6]; 2 mg oral, around Tmax, 1TC global method", "value": 41, "unit": "%"}, {"measurement": "predicted mean SV2A occupancy at trough level at steady state", "setting": "[6]; 10 mg once a day, model prediction", "value": 76, "unit": "%"}, {"measurement": "mean SV2A occupancy", "setting": "[6]; 10 mg oral, approximately 24 h after administration", "value": 48, "unit": "%"}, {"measurement": "mean SV2A occupancy", "setting": "[6]; 10 mg oral, around Tmax, 1TC global method", "value": "69% and ~70%"}, {"measurement": "mean SV2A occupancy", "setting": "[6]; 20 mg oral, approximately 24 h after administration", "value": 61, "unit": "%"}, {"measurement": "mean SV2A occupancy", "setting": "[6]; 20 mg oral, around Tmax, 1TC global method (peak occupancy)", "value": 76, "unit": "%"}, {"measurement": "mean plasma concentration", "setting": "[6]; 20 mg oral, around Tmax, Part B", "value": "159 ± 20.5", "unit": "ng/mL"}, {"measurement": "occupancy as share of predicted maximum", "setting": "[6]; 80 mg dose, predicted", "value": 96, "unit": "%"}, {"measurement": "EC50 of SV2A occupancy (plasma concentration)", "setting": "[6]; [9]", "value": 28.2, "unit": "ng/mL"}, {"measurement": "Emax of SV2A occupancy", "setting": "[6]; [9]", "value": 90.3, "unit": "%"}, {"measurement": "plasma level predicted to render ~90% of maximal occupancy", "setting": "[6]; Figure 3", "value": "~200", "unit": "ng/mL"}, {"measurement": "EC50 of plasma concentration-occupancy relationship (Figure 3)", "setting": "[6]; Tmax and 24 h post-dose, excluding 24 h data of 1 mg", "value": "around 25 ng/ml"}, {"measurement": "EC90 of SV2A occupancy (concentration where 90% of the maximum effect is reached)", "setting": "[6]; mixed-effect Emax model", "value": 245, "unit": "ng/mL"}, {"measurement": "EC50 of SV2A occupancy (plasma concentration)", "setting": "[6]; mixed-effect Emax model, all data, 95% CI 18.4 to 36.3 ng/ml", "value": 27.3, "unit": "ng/mL"}, {"measurement": "Emax of SV2A occupancy", "setting": "[6]; mixed-effect Emax model, all data, 95% CI 80.1%-98.4%", "value": 89.2, "unit": "%"}, {"measurement": "occupancy levels at which mild and transient side effects were seen in some individuals", "setting": "[6]; possible target related effect", "value": "> 60", "unit": "%"}, {"measurement": "no observed adverse effect level (NOAEL)", "setting": "[7]", "value": 150, "unit": "mg/kg/day"}, {"measurement": "anti-convulsant effects", "setting": "[8]", "value": "without anti-convulsant effects"}]}
